Measurements: ChEMBL document CHEMBL5518215, “Unlocking Antibacterial Potential: Key-Site-Based Regulation of Antibacterial Spectrum of Peptides” (J Med Chem, 2024)

Experiments:
Escherichia coli [1] = experiment: Antimicrobial activity against Escherichia coli 25922 assessed as absence bacterial growth measured after 18 to 24 hrs incubation by NCCLS method; assay type: functional; conditions: time 18-24 hrs
Escherichia coli [2] = experiment: Antimicrobial activity against Escherichia coli K88 assessed as absence bacterial growth measured after 18 to 24 hrs incubation by NCCLS method; assay type: functional; conditions: time 18-24 hrs
Salmonella typhimurium [3] = experiment: Antimicrobial activity against Salmonella typhimurium 14028 assessed as absence bacterial growth measured after 18 to 24 hrs incubation by NCCLS method; assay type: functional, Salmonella enterica subsp. enterica serovar Typhimurium; conditions: Salmonella enterica, time 18-24 hrs
[4] = Antimicrobial activity against Salmonella pullorum C7913 assessed as absence bacterial growth measured after 18 to 24 hrs incubation by NCCLS method; assay type: functional, Salmonella enterica subsp. enterica serovar Pullorum; conditions: Salmonella enterica, time 18-24 hrs
Pseudomonas aeruginosa [5] = experiment: Antimicrobial activity against Pseudomonas aeruginosa 27853 assessed as absence bacterial growth measured after 18 to 24 hrs incubation by NCCLS method; assay type: functional; conditions: time 18-24 hrs
Acinetobacter baumannii [6] = experiment: Antimicrobial activity against Acinetobacter baumannii 1.6769 assessed as absence bacterial growth measured after 18 to 24 hrs incubation by NCCLS method; assay type: functional; conditions: time 18-24 hrs
Enterococcus faecalis [7] = experiment: Antimicrobial activity against Enterococcus faecalis 29212 assessed as absence bacterial growth measured after 18 to 24 hrs incubation by NCCLS method; assay type: functional; conditions: time 18-24 hrs
Listeria monocytogenes [8] = experiment: Antimicrobial activity against Listeria monocytogenes 1.10753 assessed as absence bacterial growth measured after 18 to 24 hrs incubation by NCCLS method; assay type: functional; conditions: time 18-24 hrs
Bacillus cereus [9] = experiment: Antimicrobial activity against Bacillus cereus 1.932 assessed as absence bacterial growth measured after 18 to 24 hrs incubation by NCCLS method; assay type: functional; conditions: time 18-24 hrs
Staphylococcus aureus [10] = experiment: Antimicrobial activity against Staphylococcus aureus 29213 assessed as absence bacterial growth measured after 18 to 24 hrs incubation by NCCLS method; assay type: functional; conditions: time 18-24 hrs
Staphylococcus aureus [11] = experiment: Antimicrobial activity against Methicillin-resistant Staphylococcus aureus 43300 assessed as absence bacterial growth measured after 18 to 24 hrs incubation by NCCLS method; assay type: functional; conditions: time 18-24 hrs
[12] = system: Staphylococcus epidermidis; experiment: Antimicrobial activity against Staphylococcus epidermidis 12228 assessed as absence bacterial growth measured after 18 to 24 hrs incubation by NCCLS method; assay type: functional; conditions: time 18-24 hrs
Staphylococcus aureus [13] = experiment: Antimicrobial activity against Staphylococcus aureus 29213 assessed as absence bacterial growth measured after 18 to 24 hrs incubation by NCCLS m; assay type: functional; conditions: time 18-24 hrs
Escherichia coli [14] = experiment: Antimicrobial activity against Escherichia coli 25922 assessed as bacterial killing measured after 16 hrs incubation; assay type: functional
Escherichia coli [15] = experiment: Antimicrobial activity against Escherichia coli K88 assessed as bacterial killing measured after 16 hrs incubation; assay type: functional
Salmonella typhimurium [16] = experiment: Antimicrobial activity against Salmonella typhimurium 14028 assessed as bacterial killing measured after 16 hrs incubation; assay type: functional, Salmonella enterica subsp. enterica serovar Typhimurium; conditions: Salmonella enterica
Salmonella typhimurium [17] = experiment: Antimicrobial activity against Salmonella typhimurium C7731 assessed as bacterial killing measured after 16 hrs incubation; assay type: functional, Salmonella enterica subsp. enterica serovar Typhimurium; conditions: Salmonella enterica
[18] = Antimicrobial activity against Salmonella pullorum C7913 assessed as bacterial killing measured after 16 hrs incubation; assay type: functional, Salmonella enterica subsp. enterica serovar Pullorum; conditions: Salmonella enterica
Pseudomonas aeruginosa [19] = experiment: Antimicrobial activity against Pseudomonas aeruginosa 27853 assessed as bacterial killing measured after 16 hrs incubation; assay type: functional
Acinetobacter baumannii [20] = experiment: Antimicrobial activity against Acinetobacter baumannii 1.6769 assessed as bacterial killing measured after 16 hrs incubation; assay type: functional
Enterococcus faecalis [21] = experiment: Antimicrobial activity against Enterococcus faecalis 29212 assessed as bacterial killing measured after 16 hrs incubation; assay type: functional
Listeria monocytogenes [22] = experiment: Antimicrobial activity against Listeria monocytogenes 1.10753 assessed as bacterial killing measured after 16 hrs incubation; assay type: functional
Bacillus cereus [23] = experiment: Antimicrobial activity against Bacillus cereus 1.932 assessed as bacterial killing measured after 16 hrs incubation; assay type: functional
Staphylococcus aureus [24] = experiment: Antimicrobial activity against Staphylococcus aureus 29213 assessed as bacterial killing measured after 16 hrs incubation; assay type: functional
Staphylococcus aureus [25] = experiment: Antimicrobial activity against Methicillin-resistant Staphylococcus aureus 43300 assessed as bacterial killing measured after 16 hrs incubation; assay type: functional
[26] = system: Staphylococcus epidermidis; experiment: Antimicrobial activity against Staphylococcus epidermidis 12228 assessed as bacterial killing measured after 16 hrs incubation; assay type: functional
Staphylococcus aureus [27] = experiment: Antimicrobial activity against Staphylococcus aureus 25923 assessed as bacterial killing measured after 16 hrs incubation; assay type: functional
Salmonella typhimurium [28] = experiment: Antimicrobial activity against Salmonella typhimurium C7731 assessed as absence bacterial growth measured after 18 to 24 hrs incubation by NCCLS method; assay type: functional, Salmonella enterica subsp. enterica serovar Typhimurium; conditions: Salmonella enterica, time 18-24 hrs
Escherichia coli [29] = experiment: Antimicrobial activity against Escherichia coli 25922 assessed as absence bacterial growth measured after 18 to 24 hrs incubation in presence of 50% serum by NCCLS method; assay type: functional; conditions: time 18-24 hrs
Escherichia coli [30] = experiment: Antimicrobial activity against Escherichia coli 25922 assessed as absence bacterial growth measured after 18 to 24 hrs incubation in presence of 25% serum by NCCLS method; assay type: functional; conditions: time 18-24 hrs
Escherichia coli [31] = experiment: Antimicrobial activity against Escherichia coli 25922 assessed as absence bacterial growth measured after 18 to 24 hrs incubation in presence of 12.5% serum by NCCLS method; assay type: functional; conditions: time 18-24 hrs
Escherichia coli [32] = experiment: Antimicrobial activity against Escherichia coli 25922 assessed as absence bacterial growth measured after 18 to 24 hrs incubation in presence of NaCl by NCCLS method; assay type: functional; conditions: time 18-24 hrs
Escherichia coli [33] = experiment: Antimicrobial activity against Escherichia coli 25922 assessed as absence bacterial growth measured after 18 to 24 hrs incubation in presence of KCl by NCCLS method; assay type: functional; conditions: time 18-24 hrs
Escherichia coli [34] = experiment: Antimicrobial activity against Escherichia coli 25922 assessed as absence bacterial growth measured after 18 to 24 hrs incubation in presence of NH4Cl by NCCLS method; assay type: functional; conditions: time 18-24 hrs
Escherichia coli [35] = experiment: Antimicrobial activity against Escherichia coli 25922 assessed as absence bacterial growth measured after 18 to 24 hrs incubation in presence of MgCl2 by NCCLS method; assay type: functional; conditions: time 18-24 hrs
Escherichia coli [36] = experiment: Antimicrobial activity against Escherichia coli 25922 assessed as absence bacterial growth measured after 18 to 24 hrs incubation in presence of ZnCl2 by NCCLS method; assay type: functional; conditions: time 18-24 hrs
Escherichia coli [37] = experiment: Antimicrobial activity against Escherichia coli 25922 assessed as absence bacterial growth measured after 18 to 24 hrs incubation in presence of FeCl3 by NCCLS method; assay type: functional; conditions: time 18-24 hrs
Erythrocyte = experiment: Hemolytic activity in human RBC at effective concentration measured after 1 hr by microplate reader analysis; assay type: toxicity, cell-based
[38] = Cytotoxicity against mouse RAW264.7 cells assessed as cell survival rate measured after 8 hrs by MTT assay; assay type: toxicity, cell-based
[39] = Cytotoxicity against human HEK-293T cells assessed as cell survival rate measured after 8 hrs by MTT assay; assay type: toxicity, cell-based
[40] = Cytotoxicity against porcine IPEC-J2 cells assessed as cell survival rate measured after 8 hrs by MTT assay; assay type: toxicity, cell-based, Sus scrofa; conditions: pig

H-GKLWLKGWKLWLKGGKLWLKG-NH2
> 32 µM: MIC (Listeria monocytogenes [8]) | MBC (Listeria monocytogenes [22])
8 µM: MBC (Salmonella typhimurium [17]) | MBC (Staphylococcus aureus [27])
4 µM: MIC (Staphylococcus aureus [13]) | MBC (Salmonella typhimurium [16]) | MBC (Pseudomonas aeruginosa [19]) | MBC (Enterococcus faecalis [21]) | MBC (Bacillus cereus [23]) | MBC (Staphylococcus aureus [24]) | MBC (Staphylococcus aureus [25]) | MBC [26]
32 µM: MIC (Escherichia coli [29]) | MIC (Escherichia coli [30]) | HC10 (Erythrocyte)
2 µM: MIC (Salmonella typhimurium [3]) | MIC (Pseudomonas aeruginosa [5]) | MIC (Acinetobacter baumannii [6]) | MIC (Enterococcus faecalis [7]) | MIC (Staphylococcus aureus [10]) | MIC (Staphylococcus aureus [11]) | MIC [12] | MBC (Acinetobacter baumannii [20]) | MIC (Salmonella typhimurium [28]) | MIC (Escherichia coli [32]) | MIC (Escherichia coli [34]) | MIC (Escherichia coli [35])
3.9 µM: IC50 at 8 h [40]
16 µM: MIC (Escherichia coli [31])
1 µM: MIC (Escherichia coli [1]) | MIC (Escherichia coli [2]) | MIC [4] | MIC (Bacillus cereus [9]) | MBC (Escherichia coli [14]) | MBC (Escherichia coli [15]) | MBC [18] | MIC (Escherichia coli [33]) | MIC (Escherichia coli [36]) | MIC (Escherichia coli [37])
53.5 µM: IC50 at 8 h [38]
61.9 µM: IC50 at 8 h [39]

H-AKLWLKAAKLWLKAAKLWLKA-NH2
1 µM: MIC (Escherichia coli [1]) | MIC (Salmonella typhimurium [3]) | MIC (Acinetobacter baumannii [6]) | MBC (Escherichia coli [14]) | MBC (Acinetobacter baumannii [20])
8 µM: MBC [18]
32 µM: MBC (Listeria monocytogenes [22])
0.5 µM: MIC (Escherichia coli [2]) | MBC (Escherichia coli [15]) | MBC (Salmonella typhimurium [17]) | MIC (Salmonella typhimurium [28])
16 µM: MIC (Listeria monocytogenes [8])
4 µM: MIC (Enterococcus faecalis [7]) | MBC (Pseudomonas aeruginosa [19]) | MBC (Enterococcus faecalis [21]) | MBC (Staphylococcus aureus [25]) | MBC [26] | MBC (Staphylococcus aureus [27])
2 µM: MIC [4] | MIC (Pseudomonas aeruginosa [5]) | MIC (Bacillus cereus [9]) | MIC (Staphylococcus aureus [10]) | MIC (Staphylococcus aureus [11]) | MIC [12] | MIC (Staphylococcus aureus [13]) | MBC (Salmonella typhimurium [16]) | MBC (Bacillus cereus [23]) | MBC (Staphylococcus aureus [24])

H-GKLWLKGLKLWLKGGKLWLKG-NH2
32.7 µM: IC50 at 8 h [38]
21.1 µM: IC50 at 8 h [40]
4 µM: MIC (Pseudomonas aeruginosa [5]) | MIC (Enterococcus faecalis [7]) | MIC (Bacillus cereus [9]) | MIC (Staphylococcus aureus [10]) | MIC (Staphylococcus aureus [13]) | MBC (Enterococcus faecalis [21]) | MBC (Bacillus cereus [23]) | MBC (Staphylococcus aureus [24]) | MBC [26] | MIC (Salmonella typhimurium [28]) | MIC (Escherichia coli [32]) | MIC (Escherichia coli [35])
47.2 µM: IC50 at 8 h [39]
8 µM: MBC (Staphylococcus aureus [27])
2 µM: MIC (Escherichia coli [1]) | MIC (Acinetobacter baumannii [6]) | MIC (Staphylococcus aureus [11]) | MIC [12] | MBC (Escherichia coli [14]) | MBC (Acinetobacter baumannii [20]) | MBC (Staphylococcus aureus [25]) | MIC (Escherichia coli [33]) | MIC (Escherichia coli [34]) | MIC (Escherichia coli [36]) | MIC (Escherichia coli [37])
1 µM: MIC (Escherichia coli [2]) | MIC (Salmonella typhimurium [3]) | MIC [4] | MBC (Escherichia coli [15]) | MBC (Salmonella typhimurium [16]) | MBC [18]
16 µM: MBC (Salmonella typhimurium [17]) | MIC (Escherichia coli [31])
> 32 µM: MIC (Listeria monocytogenes [8]) | MBC (Listeria monocytogenes [22]) | MIC (Escherichia coli [29]) | MIC (Escherichia coli [30])
64 µM: HC10 (Erythrocyte)
32 µM: MBC (Pseudomonas aeruginosa [19])
